Test results from patent publication US20070037253A1, “Methods and compositions for treatment of arthritis and cancer” (priority 2003, published 2007).
Entries after “also recorded” stand apart in the source; their conditions may differ. Where a SMILES comes first, the peptide text is derived from it.

Columns and labels:
[1] = target: T1, MMP-1, secreted from IL-1 β-stimulated rabbit synovial fibroblasts (Oryctolagus cuniculus, UniProt P13943); assay: Secreted MMP-1 activity of IL-1β-stimulated rabbit synovial fibroblasts; format: cell-based
T1 construct: endogenous in cells; host or cells: HIG-82 rabbit fibroblast-like synoviocytes (ATCC CRL-1832)
T1 sequence (P13943 99-468): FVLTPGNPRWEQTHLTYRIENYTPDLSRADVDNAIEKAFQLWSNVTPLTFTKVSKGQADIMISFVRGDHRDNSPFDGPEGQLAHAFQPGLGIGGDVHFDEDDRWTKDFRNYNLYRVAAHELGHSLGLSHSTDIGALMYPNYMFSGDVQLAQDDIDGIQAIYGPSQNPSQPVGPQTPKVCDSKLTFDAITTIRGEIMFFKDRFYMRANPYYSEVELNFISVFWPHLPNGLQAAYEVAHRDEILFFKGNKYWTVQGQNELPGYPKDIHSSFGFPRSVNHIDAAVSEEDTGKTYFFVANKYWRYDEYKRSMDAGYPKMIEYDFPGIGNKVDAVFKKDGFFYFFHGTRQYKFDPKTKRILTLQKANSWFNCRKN
Experimental: FLSC culture and inhibition of extracellular MMP activity: All experiments were performed on HIG-82 rabbit fibroblast-like synoviocytes (FLSCs) obtained from American Type Culture Collection (Manassas, Va.; catalogue No. CRL-1832). FLSCs were grown in Ham's F-12 medium containing 10% fetal bovine serum (FBS) and 1% penicillin/streptomycin, as recommended by the supplier. For experimental purposes, FLSCs were seeded into 12-well plates, grown to near confluence, and then serum starved (Ham's F-12 without FBS or penicillin/streptomycin) for 16 h. After serum starvation of FLSCs, supernatants were removed and replaced with fresh Ham's F-12 medium for 60 min at 37° C./5% CO2 before incubation for 2 h with various concentrations (1-10 μM) of test inhibitor peptides: P-NT.II, PIP [59-67] monomer and dimer. FLSCs were then stimulated for 24 h with IL-1β (10 ng/mL), and the supernatants concentrated by centrifugation in Centricon centrifugal filter devices (M.W. cutoff 30,000) for 35 min at 5000 rpm at 4° C. After activation with APMA (1 mM final concentration), the samples were measured for MMP-1 activity using BIOMOL AK-404 QuantiZyme Assay system, and for MMP-2 and -9 activities by gelatin zymography.

[2] = target: T2, purified human synovial sPLA2 (human Type IIA sPLA2) (Homo sapiens, UniProt P14555); assay: sPLA2 inhibition, 3H-arachidonate-labelled E. coli membrane assay; format: biochemical; settings: fixed peptide concentration (5 μM); 3H-labelled E. coli membrane assay; read-out: % Inhibition (mean ± SD)
T2 construct: purchased Cayman Chemicals, USA
T2 sequence (P14555 21-144): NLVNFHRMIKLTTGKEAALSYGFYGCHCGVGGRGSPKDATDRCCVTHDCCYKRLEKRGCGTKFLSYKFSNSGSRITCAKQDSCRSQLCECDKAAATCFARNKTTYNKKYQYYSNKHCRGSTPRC
Experimental: In brief, [^3H] arachidonate-labeled E. coli membranes (0.005 mCi/mL; 5.8 μCi/μmol, NEN) were used as substrate, and 100 mM Tris-HCl—25 mM CaCl2, pH 7.5 solution as an assay buffer. The reaction mixture contained 20 μL of substrate, 0.85 pmole of purified human synovial sPLA2 (human Type IIA sPLA2, Cayman Chemicals, USA), and an increasing concentrations of the family of synthetic peptides derived from the sequence of PIP. The final volume of the reaction mixture was adjusted to 250 μL with an assay buffer. After incubation of the mixture (37° C., 1 h) and termination of the reaction with 750 μL of chilled PBS containing 1% BSA, microfuge tubes containing the samples were centrifuged (10,000 g at 4° C. for 15 min), and 500 μL aliquots of the supernatant taken to measure the amount of [^3H]-labeled arachidonate released from the E. coli membrane using liquid scintillation counting (Multipurpose Scintillation Counter LS 6500; Beckman, USA). As controls, sPLA2 was pre-incubated with the assay buffer alone. All samples, including controls, were performed in triplicate and plotted as the percentage inhibition relative to negative controls.
A sigmoid dose response curve was generated to allow calculation of the IC50 values. All samples were performed in triplicate. Results were analyzed by nonlinear regression with GraphPad Prism (version 2.01) and expressed as the percentage of inhibition relative to control values.

MMP-2 = target: T3, MMP-2 (Homo sapiens, UniProt P08253); assay: Gelatin zymography of human synovial fluid pre-incubated with inhibitors; format: biochemical; settings: 5 or 10 μM, pre-incubated 37° C. 1 h
T3 construct: from tissue; host or cells: human synovial fluid
T3 sequence (P08253 110-660): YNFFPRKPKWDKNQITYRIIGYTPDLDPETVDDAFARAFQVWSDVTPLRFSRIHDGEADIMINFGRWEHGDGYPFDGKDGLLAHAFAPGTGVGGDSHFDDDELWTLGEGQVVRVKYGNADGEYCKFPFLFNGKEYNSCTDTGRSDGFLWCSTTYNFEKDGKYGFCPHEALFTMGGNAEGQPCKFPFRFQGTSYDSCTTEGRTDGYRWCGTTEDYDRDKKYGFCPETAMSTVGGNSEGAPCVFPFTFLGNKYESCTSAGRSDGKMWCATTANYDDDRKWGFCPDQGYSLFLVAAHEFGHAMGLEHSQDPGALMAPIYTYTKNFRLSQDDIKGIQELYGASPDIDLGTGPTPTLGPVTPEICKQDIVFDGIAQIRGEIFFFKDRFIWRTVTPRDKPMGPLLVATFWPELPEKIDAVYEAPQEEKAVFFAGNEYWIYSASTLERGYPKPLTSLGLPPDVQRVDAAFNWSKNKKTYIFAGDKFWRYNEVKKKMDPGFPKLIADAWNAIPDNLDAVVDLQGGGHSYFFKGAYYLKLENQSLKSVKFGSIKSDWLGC
Experimental: (§1) (A) Samples containing human synovial fluid (5 μL) and 5 or 10 μM of peptides were pre-incubated at 37° C. for 1 h in Tris-HCl buffer prior to electrophoresis on 10% SDS-PAGE gel containing gelatin (0.1%). […] (B) The mean density (OD/mm2)±SD (n=3), representing MMP-2 activity, obtained by scanning the zymograms using the GS-710 calibrated imaging densitometer (Bio Rad, USA).
(§2) Gelatin zymography: human synovial fluid, purified human recombinant MMP-2 and -9 or APMA-activated concentrated culture supernatant samples (10 μL) was mixed (1:1) with Laemmli sample buffer, loaded on 4% acrylamide stacking gel and electrophoresed (120 V) at 4° C. on a 10% acrylamide-resolving minigel containing 0.1% gelatin. After electrophoresis for 1 h, the gels were soaked in 2.5% Triton X-100 on a shaker for 1 h, changing the solution after 30 min, to eliminate SDS. After overnight incubation in zymogen activation buffer [50 mM Tris-HCl, pH 7.5, containing 10 mM CaCl2 and 5 mM ZnCl2] at 37° C., the gels were rinsed in distilled water, and stained for 3 hr with […], after which clear bands of digested gelatin were clearly visible. The gels were briefly rinsed in distilled water and scanned by the Bio-Rad GS-710 Calibrated Imaging Densitometer.

MMP-9 = target: T4, MMP-9 (Homo sapiens, UniProt P14780); assay: as above; format: biochemical; settings: co-incubated 1 h
T4 construct: Samples containing human synovial fluid (5 μL) and 5 or 10 μM of peptides were pre-incubated; from tissue; host or cells: human synovial fluid
Experimental: as §1, §2

T4 sequence (P14780 94-707): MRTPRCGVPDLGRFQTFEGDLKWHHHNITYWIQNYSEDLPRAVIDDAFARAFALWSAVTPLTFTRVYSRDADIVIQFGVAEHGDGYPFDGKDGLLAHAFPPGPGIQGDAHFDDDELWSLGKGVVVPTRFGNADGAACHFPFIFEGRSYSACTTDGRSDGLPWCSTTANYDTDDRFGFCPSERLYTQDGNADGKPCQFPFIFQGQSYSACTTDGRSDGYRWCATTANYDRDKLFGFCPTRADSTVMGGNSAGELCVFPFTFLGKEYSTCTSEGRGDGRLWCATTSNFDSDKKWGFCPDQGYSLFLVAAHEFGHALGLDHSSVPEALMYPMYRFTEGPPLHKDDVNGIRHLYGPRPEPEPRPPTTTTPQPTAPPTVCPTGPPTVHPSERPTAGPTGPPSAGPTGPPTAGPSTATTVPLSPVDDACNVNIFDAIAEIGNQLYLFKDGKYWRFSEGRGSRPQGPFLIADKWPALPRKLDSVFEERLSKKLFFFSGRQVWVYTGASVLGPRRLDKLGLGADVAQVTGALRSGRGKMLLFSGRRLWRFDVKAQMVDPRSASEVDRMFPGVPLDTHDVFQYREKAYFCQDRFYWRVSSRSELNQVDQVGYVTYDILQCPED

## CC[C@H](C)[C@H](NC(=O)[C@H](CC(=O)O)NC(=O)[C@@H](N)C(C)C)C(=O)N[C@@H](Cc1c[nH]cn1)C(=O)N[C@H](C(=O)N[C@@H](Cc1c[nH]c2ccccc12)C(=O)N[C@@H](CC(=O)O)C(=O)NCC(=O)N[C@H](C(=O)N[C@H](C(=O)N[C@@H](CC(=O)O)C(=O)N[C@H](C(=O)N[C@@H](Cc1c[nH]cn1)C(=O)N[C@H](C(=O)N[C@@H](Cc1c[nH]c2ccccc12)C(=O)N[C@@H](CC(=O)O)C(=O)NCC(=O)N[C@H](C(=O)O)C(C)C)C(C)C)[C@@H](C)CC)C(C)C)C(C)C)C(C)C [PIP [59-67] dimer] (H-VDIHVWDGVVDIHVWDGV-OH; N-terminus and C-terminus assumed)
[1]
  enzyme activity of secreted MMP-1: markedly inhibited
[2]
  inhibition at 5 µM: 74.5 ± 4.21%
MMP-2
  MMP-2 gelatinase activity (zymogram densitometry) vs control: did not show any significant difference from the control; also recorded: insignificant
MMP-9
  MMP-9 gelatinase activity vs control: insignificant
